Reference: ChEMBL document CHEMBL3526115, “Differences in the pharmacokinetics of 4-amino-3-chlorophenyl hydrogen sulfate, a metabolite of resatorvid, in rats and dogs” (Drug Metab Dispos, 2012)

Key:
[1] = Dissociation constant, pKa of the compound; assay type: physicochemical
[2] = Elimination half life in iv dosed dog plasma; assay type: ADME, organism-based, Canis lupus familiaris; details: read-out: beta t1/2 (converted)
[3] = Elimination half life in iv dosed rat plasma; assay type: ADME, organism-based; details: read-out: beta t1/2 (converted)
[4] = Half life in dog plasma at 5 mg/kg; assay type: ADME, organism-based, Canis lupus familiaris; design: dose 5 mg/kg
[5] = Half life in rat plasma at 5 mg/kg; assay type: ADME, organism-based; design: dose 5 mg/kg
[6] = Half life in human plasma at 5 mg/kg; assay type: ADME, organism-based; design: dose 5 mg/kg

| pKa [1] | half-life [2] [h] | half-life [3] [h] | SMILES | half-life [4] [h] | half-life [5] [h] | half-life [6] [h] |
| --- | --- | --- | --- | --- | --- | --- |
| 2.4 | – | – | Nc1ccc(OS(=O)(=O)O)cc1Cl | – | – | – |
| – | 158 | 5.6 | CCOC(=O)C1=CCCC[C@H]1S(=O)(=O)N[14c]1[14cH][14cH][14c](F)[14cH][14c]1Cl | – | – | – |
| – | – | – | O=C(O)COc1ccc(Cl)cc1Cl [2,4-DICHLOROPHENOXYACETIC ACID] | 92 | < 1 | 12 |
| – | – | – | Cc1cc(Cl)ccc1OCC(=O)O [METAXON] | 63 | 6 | 11 |
